By IC50 is commonly meant the concentration at which inhibition is half-maximal.

One test has as its target T1, IDH1 R132C (Homo sapiens, UniProt O75874, R132C).
T1 construct: 6xHis
Kind of test: Biochemical assay for IDH inhibition (NADPH fluorescence), mutant IDH1 R132C. As to conditions: 25 nM IDH1-R132C, 1 hour pre-incubation, in triplet. The text has this:
(§1) The present disclosure provides a biochemical assay method for detecting the IDH inhibition and selectivity of the compounds by detecting IDH enzyme activity directly.
(§2) Wild-type IDH enzymes convert NADP^+ to NADPH when catalyzing the α-KG producing reaction. Mutant IDH enzymes convert NADPH to NADP^+ when catalyzing the D-2-HG producing reaction. So, the activity of wild-type and mutant IDH1/2 could be measured by monitoring NADPH level change as NADPH is fluorescent (Excitation 340 nm, Emission 460 nm). By monitoring the change of NADPH level in the reaction, the enzyme activity could be determined rapidly and efficiently and IC50 of a compound could also be assayed.
(§3) The test compounds are prepared into 50 mM stock solutions in DMSO and stored at −20° C. Each test compound stock is further diluted to obtain a 100× stock solution at a concentration of 400 μM, 200 μM, 100 μM, 50 μM, 25 μM, 12.5 μM, 6.25 μM and 3.125 μM, respectively, for the final use on the day of test (the concentration range of 100× stock solutions might be adjusted to cover the estimated IC50 of a specific test compound).
(§4) Inhibition of Mutant IDH1 (R132H or R132C):
(§5) To assay the enzymatic activity of mutant IDH1 proteins, 25 nM IDH1-R132C or 50 nM IDH1-R132H protein solutions are prepared in 20 mM Tris-HCl pH7.5, 150 mM NaCl, 10 mM MgCl2, 1 mM DTT, 0.05 mg/ml BSA and 1.33 mM α-KG. 148 μL 25 nM IDH1-R132C or 50 nM IDH1-R132H protein solutions are mixed with 2 μL DMSO (vehicle control for test compounds) or an above-mentioned 100× stock solution of a test compound and incubated for 1 hour at room temperature. Extra reactions containing 148 μL no-enzyme solution (20 mM Tris-HCl pH7.5, 150 mM NaCl, 10 mM MgCl2, 1 mM DTT, 0.05 mg/ml BSA and 1.33 mM α-KG) and 2 μL DMSO are also set up as background controls. Then each reaction is initiated by adding 50 μL 80 μM NADPH solution prepared in 20 mM Tris-HCl pH7.5, 150 mM NaCl, 10 mM MgCl2, 1 mM DTT and 0.05 mg/ml BSA. BioTek Synergy H1 Microplate reader (BioTek Instruments Inc., Winooski, U.S.) is employed to monitor the NADPH fluorescence (Excitation 340 nm, Emission 460 nm) every 42 seconds for 15 minutes. NADPH change rate is determined according to the linear phase of the fluorescence-time curve and results from the background control reactions are used as background subtraction to calculate the net NADPH change rates of other reactions. The net NADPH change rates from the vehicle control reactions are used as 100% enzymatic activity and thus the relative enzymatic activity of reactions with test compounds added could be determined. Then a dose-response curve is drawn for each test compound and the corresponding IC50 is calculated. The IC50 value is used to evaluate the inhibition and selectivity of each test compound on the IDH enzymatic activity.
(§6) The IDH inhibition activity of the compounds were assessed according to Test 2 of the Biological Assay section. The test for mutant IDH1 R132H and IDH1 R132C inhibition of each compound was carried out in triplet. As used in Table 5, “A” refers to an inhibitory activity against IDH1 R132H or IDH1 R132C with an IC50<0.1 μM; “B” refers to an inhibitory activity against IDH1 R132H or IDH1 R132C with an IC50 from 0.1 μM to 0.5 μM; “C” refers to an inhibitory activity against IDH1 R132H or IDH1 R132C with an IC50 from 0.5 μM to 1 μM; “D” refers to an inhibitory activity against IDH1 R132H or IDH1 R132C with an IC50>1 μM.

Test [1] has as its target T2, IDH (endogenous IDH1 R132C) in HT1080 cell (Homo sapiens, UniProt O75874, R132C).
T2 construct: which harbor endogenous heterozygous IDH1 R132C and R132H mutation respectively and accumulate D-2-HG
Kind of test: Cell-based assay for IDH inhibition (decrease of D-2-HG) in HT1080 cells. The following applies: human fibrosarcoma cell line HT1080, 16 hours treatment, D-2-HG by LC-MS, in triplet. The text has this:
The present disclosure also provides a cell-based method for assaying IDH inhibition and selectivity of the compounds in human fibrosarcoma cell line HT1080 and cholangiocarcinoma cell line HCCC 9810, which harbor endogenous heterozygous IDH1 R132C and R132H mutation respectively and accumulate D-2-HG. Tumor -derived IDH mutant lost its normal activity of producing α-KG, and gained a new activity of producing D-2-HG. D-2-HG is a metabolite specifically elevated in tumor cells expressing mutant IDH1 or IDH2 proteins. When treating such mutant IDH-expressing tumor cells with an effective IDH inhibitor, the synthesis of D-2-HG is blocked, and D-2-HG concentration is decreased by the oxidation reaction catalyzed by the endogenous D-2-HG dehydrogenase.
To perform a cell-based IDH inhibition assay, HT1080 and HCCC 9810 cells (or other cell lines harboring different IDH mutations) are cultured in DMEM supplemented with 10% FBS. The cells are treated with compounds of present disclosure at various different concentrations. 16 hours after the treatment, culture medium supernatants are removed and cell metabolites are extracted by 40% methanol and 40% acetonitrile in water (pre-chilled under −80° C.) at 4° C. for 1 hour. The extract supernatants are collected and cell debris are removed via high speed centrifugation. The resulting metabolite extracts are analyzed on an Agilent LC-MS system (model: 1290-6470) for 2-HG and glutamate concentration. A HILIC-Z column (2.1 mm×100 mm, […]) is employed on HPLC. Mobile phase A is 15 mM CH3COONH4 and 0.3% NH3·H2O in water. Mobile phase B is 15 mM CH3COONH4 and 0.3% NH3·H2O in 90% MeCN/10% H2O solvent. An 19% solvent A and 81% solvent B isocratic gradient method is used at a flow rate of 0.3 ml/min. D-2-HG is ionized under negative ion spray mode and detected through the multiple-reaction monitoring of a mass transition pair at m/z=147.0/128.9 and 147.0/85.1. Glutamate is ionized under ion spray mode and detected on negative polarity multiple-reaction monitoring of a mass transition pair at m/z=146/102 and 146/128 and its level is used to normalize 2-HG concentration. The activity of cellular mutant IDH proteins in the presence of each test compound at different concentrations can be represented by relative D-2-HG concentration to negative control samples (i.e., cells are treated with DMSO only), and the IC50 value could be determined to evaluate the inhibition and selectivity of each test compound on the IDH enzymatic activity.
The IDH inhibition activity of the compounds were assessed in human fibrosarcoma cell line HIT1080 according to Test 3 of the Biological Assay section. The test for IDH inhibition of each compound was carried out in triplet. As used in Table 6, “A” refers to an IDH inhibitory activity with an IC50<0.1 μM; “B” refers to an IDH inhibitory activity with an IC50 from 0.1 μM to 0.5 μM; “C” refers to an IDH inhibitory activity with an IC50 from 0.5 μM to 1 μM; “D” refers to an IDH inhibitory activity with an IC50>1 μM.

A further test deals with T3, IDH1 R132H (Homo sapiens, UniProt O75874, R132H).
T3 construct: 6xHis
Kind of test: Biochemical assay for IDH inhibition (NADPH fluorescence), mutant IDH1 R132H. The following applies: 50 nM IDH1-R132H, 1 hour pre-incubation, in triplet.
From the text: as §1, §2, §3, §4, §5, §6

T3 sequence (O75874 whole entry R132H): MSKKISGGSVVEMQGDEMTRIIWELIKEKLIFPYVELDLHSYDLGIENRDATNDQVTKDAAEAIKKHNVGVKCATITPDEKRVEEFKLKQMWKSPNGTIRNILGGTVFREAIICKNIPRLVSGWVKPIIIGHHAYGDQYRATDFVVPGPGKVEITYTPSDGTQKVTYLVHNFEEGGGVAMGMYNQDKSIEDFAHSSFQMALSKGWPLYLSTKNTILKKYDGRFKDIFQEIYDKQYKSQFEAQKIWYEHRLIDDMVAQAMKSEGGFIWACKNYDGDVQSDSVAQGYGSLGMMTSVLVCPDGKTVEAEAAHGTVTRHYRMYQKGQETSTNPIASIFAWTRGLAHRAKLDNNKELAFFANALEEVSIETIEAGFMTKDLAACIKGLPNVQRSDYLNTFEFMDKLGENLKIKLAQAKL
T1 sequence (O75874 whole entry R132C): as the sequence (O75874 whole entry R132H) above, with H132C counted along it
T2 sequence (O75874 2-414 R132C): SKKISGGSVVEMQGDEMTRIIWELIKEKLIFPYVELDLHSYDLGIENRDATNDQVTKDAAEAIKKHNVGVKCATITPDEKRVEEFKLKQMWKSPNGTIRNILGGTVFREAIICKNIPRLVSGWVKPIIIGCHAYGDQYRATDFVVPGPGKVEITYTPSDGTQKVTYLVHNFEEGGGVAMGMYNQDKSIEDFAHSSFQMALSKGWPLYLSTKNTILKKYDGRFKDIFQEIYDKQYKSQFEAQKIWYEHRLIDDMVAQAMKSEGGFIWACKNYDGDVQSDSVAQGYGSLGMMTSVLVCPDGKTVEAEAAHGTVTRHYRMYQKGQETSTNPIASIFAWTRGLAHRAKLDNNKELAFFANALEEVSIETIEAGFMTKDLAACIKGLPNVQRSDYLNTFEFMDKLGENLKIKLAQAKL

`CCN1Cc2c(ccnc2N[C@H](C)c2ccc(Oc3ccccc3)c(F)c2)C1=O` [Compound 12, (R)-2-ethyl-4-((1-(3-fluoro-4-phenoxyphenyl)ethyl)amino)-2,3-dihydro-1H-pyrrolo[3,4-c]pyridin-1-one]: the IC50 (on IDH1 R132C; in test [1]; on IDH1 R132H) was > 1 µM throughout.
Turning to `CCN1Cc2c(ccnc2N[C@@H](C)c2ccc(Oc3cccnc3)c(F)c2)C1=O` [Compound 13, (S)-2-ethyl-4-((1-(3-fluoro-4-(pyridin-3-yloxy)phenyl)ethyl)amino)-2,3-dihydro-1H-pyrrolo[3,4-c]pyridin-1-one], the IC50 (on IDH1 R132C; in test [1]; at IDH1 R132H) was > 1 µM throughout.
As to `CCN1Cc2c(ccnc2N[C@@H](C)c2ccc(OC3CCCCC3)c(F)c2)C1=O` [Compound 14, (S)-4-((1-(4-(cyclohexyloxy)-3-fluorophenyl)ethyl)amino)-2-ethyl-2,3-dihydro-1H-pyrrolo[3,4-c]pyridin-1-one], the IC50 (at IDH1 R132C; in test [1]; at IDH1 R132H) was > 1 µM in each case.
As for `CCN1Cc2c(ccnc2N[C@@H](C)c2ccc(OC3CCCC3)c(F)c2)C1=O` [Compound 15, (S)-4-((1-(4-(cyclopentyloxy)-3-fluorophenyl)ethyl)amino)-2-ethyl-2,3-dihydro-1H-pyrrolo[3,4-c]pyridin-1-one], the IC50 at IDH1 R132C is 0.5 to 1 µM; in test [1] it was > 1 µM; on IDH1 R132H, 0.1 to 0.5 µM.
For `Cc1ccc(Oc2ccc([C@H](C)Nc3nccc4c3CN(CCF)C4=O)cc2F)cc1` [Compound 16, (S)-4-((1-(3-fluoro-4-(p-tolyloxy)phenyl)ethyl)amino)-2-(2-fluoroethyl)-2,3-dihydro-1H-pyrrolo[3,4-c]pyridin-1-one], the IC50 is 0.5 to 1 µM at IDH1 R132C, > 1 µM in test [1] and 0.5 to 1 µM on IDH1 R132H.
As for `Cc1ccc(Oc2ccc([C@H](C)Nc3nccc4c3CN(CC(F)F)C4=O)cc2F)cc1` [Compound 17, (S)-2-(2,2-difluoroethyl)-4-((1-(3-fluoro-4-(p-tolyloxy)phenyl)ethyl)amino)-2,3-dihydro-1H-pyrrolo[3,4-c]pyridin-1-one], the IC50 on IDH1 R132C is 0.1 to 0.5 µM; in test [1], > 1 µM; on IDH1 R132H, 0.1 to 0.5 µM.
Take `CCN1Cc2c(N[C@@H](C)c3ccc(Oc4ccc(C)cc4)c(F)c3)ncc(F)c2C1=O` [Compound 18, (S)-2-ethyl-7-fluoro-4-((1-(3-fluoro-4-(p-tolyloxy)phenyl)ethyl)amino)-2,3-dihydro-1H-pyrrolo[3,4-c]pyridin-1-one]: the results for the IC50 (on IDH1 R132C; in test [1]; at IDH1 R132H) were > 1 µM, > 1 µM and 0.1 to 0.5 µM, respectively.
For `CCN1Cc2c(N[C@@H](C)c3ccc(OC4CCCC4)c(F)c3)ncc(F)c2C1=O` [Compound 19, (S)-4-((1-(4-(cyclopentyloxy)-3-fluorophenyl)ethyl)amino)-2-ethyl-7-fluoro-2,3-dihydro-1H-pyrrolo[3,4-c]pyridin-1-one], the IC50 (at IDH1 R132C; in test [1]; at IDH1 R132H) was > 1 µM in each case.
Take `CCN1Cc2c(ccnc2N[C@@H](C)c2cc(F)c(Oc3ccc(C)cc3)cc2F)C1=O` [Compound 20, (S)-4-((1-(2,5-difluoro-4-(p-tolyloxy)phenyl)ethyl)amino)-2-ethyl-2,3-dihydro-1H-pyrrolo[3,4-c]pyridin-1-one]: the IC50 on IDH1 R132C was in the range of 0.1 to 0.5 µM; in test [1], 0.5 to 1 µM; at IDH1 R132H, 0.1 to 0.5 µM.
For the compound `CCN1Cc2c(ccnc2N[C@@H](C)c2cc(F)c(Oc3ccc4c(ccn4C)c3)cc2F)C1=O` [Compound 21, (S)-4-((1-(2,5-difluoro-4-((1-methyl-1H-indol-5-yl)oxy)phenyl)ethyl)amino)-2-ethyl-2,3-dihydro-1H-pyrrolo[3,4-c]pyridin-1-one], the IC50 at IDH1 R132C was 0.1 to 0.5 µM; in test [1], > 1 µM; at IDH1 R132H, < 0.1 µM.
As for `CCN1Cc2c(ccnc2N[C@@H](C)c2cc(F)c(OC3CC(C)CC(C)(C)C3)cc2F)C1=O` (stereo partly drawn) [Compound 22, 4-(((1S)-1-(2,5-difluoro-4-((3,3,5-trimethylcyclohexyl)oxy)phenyl)ethyl)amino)-2-ethyl-2,3-dihydro-1H-pyrrolo[3,4-c]pyridin-1-one], the IC50 (at IDH1 R132C; in test [1]; at IDH1 R132H) was < 0.1 µM each time.
On to `CCN1Cc2c(ccnc2N[C@@H](C)c2cc(F)c(O[C@@H]3C[C@@H](C)CC(C)(C)C3)cc2F)C1=O` [Compound 23, 4-(((S)-1-(2,5-difluoro-4-(((1R,5S)-3,3,5-trimethylcyclohexyl)oxy)phenyl)ethyl)amino)-2-ethyl-2,3-dihydro-1H-pyrrolo[3,4-c]pyridin-1-one], for which the IC50 (on IDH1 R132C; in test [1]; at IDH1 R132H) was < 0.1 µM in each case.
